According to patent US11129840B2, “Methods for identifying novel dosing regimens” (Zavante Therapeutics, Inc., priority 2017, dated 2021):
In brackets after ≈: the same amount, converted by molar mass. Marks after values point to notes of the source that are not given here.

How the values were obtained:
[1] = Phase I safety and tolerability in healthy adult subjects; assay type: in vivo, human
Procedure: Materials/methods: Phase I, open-label study evaluating IV (ZTI-01) and PO (Monurol®) FOS in healthy adult subjects. […] Blood and urine samples were collected serially before and through 48 hours post-dose and analyzed via LC/MS-MS. Noncompartmental analyses were performed via WinNonlin. Safety was monitored throughout the course of the study.

EC, KPN and PSA isolates = assay: Thigh infection, dose fractionation and efficacy against all 10 isolates; assay type: in vivo, mice; conditions: 24 h; commonly in isolates with lower MICs
Procedure: (§1) 5 EC (4 ESBL), 3 KPN (2 CR), and 2 PSA were used. MICs were determined by agar dilution. […] PK/PD index determination was performed using a dose fractionation (DF) study design. […] The dose-response data was analyzed using the Emax Hill equation.

Proteus mirabilis = assay: Reference agar dilution MIC, SENTRY US isolates; assay type: cell-based; conditions: randomly selected
Procedure: (§2) FOS was tested against over 1,400 GN and 800 GP clinical isolates collected in US medical centers as part of the SENTRY Antimicrobial Surveillance Program (96% of isolates from 2015) and a selection of 29 GN and 20 GP anaerobes. Isolates were susceptibility (S) tested against FOS and comparators by reference agar dilution (25 μg/mL glucose-6-phosphate supplementation) using existing FDA breakpoints of the oral formulation for comparative assessments.

S. agalactiae = assay: Reference agar dilution MIC, SENTRY US isolates; assay type: cell-based; conditions: Streptococcus agalactiae
Procedure: as §2

[2] = system: coagulase-negative staphylococci (CoNS) excluding S. saprophyticus; assay: Reference agar dilution MIC, SENTRY US isolates; assay type: cell-based
Procedure: as §2

E. cloacae complex = assay: Reference agar dilution MIC, SENTRY US isolates; assay type: cell-based; conditions: Enterobacter cloacae; randomly selected
Procedure: as §2

Staphylococcus aureus = assay: Reference agar dilution MIC, SENTRY US isolates; assay type: cell-based
Procedure: as §2

E. faecalis = assay: Reference agar dilution MIC, SENTRY US isolates; assay type: cell-based; conditions: FDA oral breakpoints
Procedure: as §2

[3] = system: Acinetobacter-baumannii-calcoaceticus complex; assay: Reference agar dilution MIC, SENTRY US isolates; assay type: cell-based
Procedure: as §2

Escherichia coli = assay: Reference agar dilution MIC, SENTRY US isolates; assay type: cell-based; conditions: randomly selected
Procedure: as §2

Pseudomonas aeruginosa = assay: Reference agar dilution MIC, SENTRY US isolates; assay type: cell-based
Procedure: as §2

S. pyogenes = assay: Reference agar dilution MIC, SENTRY US isolates; assay type: cell-based; conditions: Streptococcus pyogenes
Procedure: as §2

Serratia marcescens = assay: Reference agar dilution MIC, SENTRY US isolates; assay type: cell-based; conditions: randomly selected
Procedure: as §2

S. saprophyticus = assay: Reference agar dilution MIC, SENTRY US isolates; assay type: cell-based; conditions: Staphylococcus saprophyticus
Procedure: as §2

Citrobacter koseri = assay: Reference agar dilution MIC, SENTRY US isolates; assay type: cell-based; conditions: randomly selected
Procedure: as §2

Klebsiella pneumoniae = assay: Reference agar dilution MIC, SENTRY US isolates; assay type: cell-based
Procedure: as §2

Enterobacter aerogenes = assay: Reference agar dilution MIC, SENTRY US isolates; assay type: cell-based; conditions: Klebsiella aerogenes; randomly selected
Procedure: as §2

CAZ-NS PSA = assay: Reference agar dilution MIC, resistant SENTRY isolates; assay type: cell-based, Pseudomonas aeruginosa
Procedure: (§3) Utilizing existing interpretative criteria for the marketed oral agent (dosed at 3 g) for analysis purposes, FOS susceptibility (S) was determined for recent resistant GN and GP clinical isolates including vancomycin-resistant Enterococcus faecium (VREM) and E. faecalis (VREF); methicillin-resistant Staphylococcus aureus (MRSA) and MR coagulase negative staphylococci (MR-CoNS), Escherichia coli (EC) and Klebsiella pneumoniae (KPN) containing extended spectrum beta-lactamases (ESBL) or were carbapenem resistant (CR); and), Pseudomonas aeruginosa (PSA) non-susceptible to ceftazidime (CAZ-NS) or to meropenem (MER-NS). […] Isolates were collected from hospitalized patients in the US as a part of the SENTRY surveillance program, 2013-2015.

MER-NS PSA = assay: as above; assay type: cell-based, Pseudomonas aeruginosa
Procedure: as §3

[4] = system: K. pneumoniae (KPC-producer) isolate; assay: Time-kill kinetic analysis; assay type: cell-based, Klebsiella pneumoniae
Procedure: TKK were sampled for colony counts at T0, T2, T4, T8 and T24 hours (h). Two Klebsiella pneumoniae isolates (one KPC and one ESBL), two Pseudomonas aeruginosa isolates (non-MDR), and one Acinetobacter baumannii isolate (MDR) were tested.

[5] = system: ESBL-producing K. pneumoniae isolate; assay: Time-kill kinetic analysis; assay type: cell-based, Klebsiella pneumoniae; conditions: FOS 1, 2, 4×MIC, 4 h
Procedure: Broth microdilution for FOS (Mueller-Hinton broth supplemented with 25 μg/mL glucose-6-phosphate) and comparators was performed before performing TKK. TKK employed MIC multiples for FOS, and ¼ and 1×MIC of select comparators, and combinations of FOS and comparator. TKK were sampled for colony counts at T0, T2, T4, T8 and T24 hours (h). Two Klebsiella pneumoniae isolates (one KPC and one ESBL), two Pseudomonas aeruginosa isolates (non-MDR), and one Acinetobacter baumannii isolate (MDR) were tested.

PSA = assay: Thigh infection, static dose and PD targets; assay type: in vivo, mice
Procedure: as §1

KPN = assay: Thigh infection, static dose and PD targets; assay type: in vivo, mice
Procedure: as §1

EC = assay: Thigh infection, static dose and PD targets; assay type: in vivo, mice
Procedure: as §1

## C[C@@H]1O[C@@H]1P(=O)(O)O [FOS, fosfomycin]
[1]; 8 g IV
  share of TEAE that occurred after the 8 g IV dose: 67.9%
[1]; after 1 g IV
  hypocalcemia (most common TEAE): 17.9%
[1]; after 8 g IV
  bradycardia (most common TEAE): 28.6%
[1]; all regimens
  % of subjects reporting a treatment-emergent adverse event (TEAE): 80%
[1]; all regimens, resolved without sequelae
  severity of TEAEs: mild-moderate
[1]; human, in vivo
  headache (most common FOS-related TEAE): 10.7%
EC, KPN and PSA isolates
  Maximal cidal activity: 2-3 log kill
Proteus mirabilis
  MIC50: 1 µg/mL (≈ 7.24 µM)
  MIC90: 8 µg/mL (≈ 57.9 µM)
S. agalactiae
  MIC50: 8 µg/mL (≈ 57.9 µM)
  MIC90: 64 µg/mL (≈ 464 µM)
[2]
  MIC50: 8 µg/mL (≈ 57.9 µM)
[2]; Staphylococcus saprophyticus
  MIC90: 64 µg/mL (≈ 464 µM)
E. cloacae complex
  MIC50: 8 µg/mL (≈ 57.9 µM)
  MIC90: 64 µg/mL (≈ 464 µM)
Staphylococcus aureus
  MIC50: 4 µg/mL (≈ 29 µM)
  MIC90: 8 µg/mL (≈ 57.9 µM)
E. faecalis
  % S: 99.0%
  % intermediate: 1.0%
[3]
  MIC50: 128 µg/mL (≈ 927 µM)
  MIC90: 256 µg/mL (≈ 1850 µM)
Escherichia coli; Escherichia coli
  MIC50: 0.5 µg/mL (≈ 3.62 µM)
  MIC90: 1 µg/mL (≈ 7.24 µM)
Escherichia coli; FDA oral breakpoints
  % S to FOS: 100.0%
Pseudomonas aeruginosa
  MIC50: 64 µg/mL (≈ 464 µM)
  MIC90: 128 µg/mL (≈ 927 µM)
S. pyogenes
  MIC50: 32 µg/mL (≈ 232 µM)
  MIC90: 64 µg/mL (≈ 464 µM)
Serratia marcescens
  MIC50: 8 µg/mL (≈ 57.9 µM)
  MIC90: 16 µg/mL (≈ 116 µM)
S. saprophyticus
  MIC50: 128 µg/mL (≈ 927 µM)
  MIC90: > 256 µg/mL
Citrobacter koseri
  MIC50: 1 µg/mL (≈ 7.24 µM)
  MIC90: 1 µg/mL (≈ 7.24 µM)
Klebsiella pneumoniae
  % of isolates ≤64 μg/mL: 97.0%
Klebsiella pneumoniae; Klebsiella pneumoniae
  MIC50: 4 µg/mL (≈ 29 µM)
  MIC90: 16 µg/mL (≈ 116 µM)
Enterobacter aerogenes
  MIC50: 8 µg/mL (≈ 57.9 µM)
  MIC90: 16 µg/mL (≈ 116 µM)
CAZ-NS PSA; Pseudomonas aeruginosa
  MIC: > 256 µg/mL
  MIC90: 128 µg/mL (≈ 927 µM)
CAZ-NS PSA; Pseudomonas aeruginosa, 38 CAZ-NS PSA
  MIC50: 64 µg/mL (≈ 464 µM)
CAZ-NS PSA; of 38 CAZ-NS PSA
  No. of isolates with FOS MIC≤64 μg/mL: 32
MER-NS PSA; Pseudomonas aeruginosa
  MIC: > 256 µg/mL
  MIC90: 128 µg/mL (≈ 927 µM)
MER-NS PSA; Pseudomonas aeruginosa, 42 MER-NS PSA
  MIC50: 64 µg/mL (≈ 464 µM)
MER-NS PSA; of 42 MER-NS PSA
  No. of isolates with FOS MIC≤64 μg/mL: 34
[4]; FOS 0.5, 1 and 2×MIC, by 24 h
  increase in bacterial growth: approximately 2 log10
[4]; FOS 2×MIC, by 4 h
  log10 reduction in bacterial growth (CFU): > 3 log10
[4]; FOS alone
  killing activity: bactericidal
[5]
  decrease in CFU: 1.4-2.2 log10 CFU
PSA; mean
  Static Dose: 1920 mg/kg/24 h
PSA; mouse, in vivo
  Stasis AUC/MIC: 15
  Stasis T > MIC: 29%
KPN; mean
  Static Dose: 1667 mg/kg/24 h
KPN; median target
  Stasis AUC/MIC: 11.1*
  Stasis T > MIC: 26.5* %
EC; mean
  Static Dose: 847 mg/kg/24 h
EC; median target
  Stasis AUC/MIC: 19.3*
  Stasis T > MIC: 37.7* %
